Reference: paper PMC11242993, “Evaluation of the Therapeutic Potential of Sulfonyl Urea Derivatives as Soluble Epoxide Hydrolase (sEH) Inhibitors” (Molecules, 2024)

Tests used:
Caco-2 cells = experiment: Caco-2 permeability; assay type: in vitro ADME
Procedure: Caco-2 cells were cultured in 75 cm^2 flasks to 80–90% confluence according to the ATCC and Millipore recommendations in a humidified atmosphere at 37 °C and 5% CO2. Cells were detached with a trypsin/EDTA solution, resuspended in the complete medium containing DMEM high glucose ([…]) with L-glutamine (4 mM) supplemented with 10% heat-inactivated Fetal Bovine Serum, 1% non-essential amino acids, and 730 nM puromycin, and seeded at a density of 5 × 10^5 cells in a 75 cm^2 flask. After 5 days, cells were trypsinized and resuspended in the complete medium to a final concentration of 600 × 10^3 cells/mL. Of the cell suspension, 400 µL was added to each well of an HTS 24-Multiwell Insert System and 25 mL of prewarmed complete medium was added to the feeder tray. Caco-2 cells were incubated in the Multiwell Insert System for 6–10 days before the transport experiments. The medium in the filter plate and feeder tray was refreshed every other day. Prior to the transport experiment, the integrity of the monolayer was verified by measuring the transepithelial electrical resistance (TEER) for every well using a Millicell-ERS system ohm meter. The final TEER values were within the range of 150–600 Ω × cm^2, as required for the assay conditions. The 24-well insert plate was removed from its feeder plate and placed in a new sterile 24-well transport analysis plate. The inserts were washed with PBS after medium aspiration. Ketoprofen, atenolol, digoxin, and quinidine were used as reference compounds.
To determine transport rates in the basolateral (B)-to-apical (A) direction, 1000 μL of the test compound solutions was added into the wells of the transport analysis plate, and the wells in the filter plate were filled with 300 μL of buffer (apical compartment).
The effect of the inhibitor on the Pgp-mediated transport of the tested compounds was assessed by determining the bidirectional transport in the presence or absence of verapamil. The Caco-2 cells were preincubated for 30 min at 37 °C with 100 μM of verapamil in both apical and basolateral compartments. After removal of the preincubation medium, the test compounds with verapamil (100 μM) in transport buffer were added in donor wells, while the receiver wells were filled with the appropriate volume of transport buffer with 100 μM of verapamil. The final amounts of test and reference compounds were 10 μM each. The plates were incubated for 90 min at 37 °C under continuous shaking at 100 rpm. Aliquots of 75 μL were taken from the donor and receiver compartments for LC–MS/MS analysis. All samples were mixed with 2 volumes of acetonitrile followed by protein sedimentation by centrifuging at 10,000 rpm for 10 min. Supernatants were analyzed using the HPLC system coupled with a tandem mass spectrometer.

C57BL/6J male mice [1] = experiment: Tail-flick reflex model; assay type: in vivo; details: single intraperitoneal injection at 10 mg/kg
Procedure: A tail-flick reflex test was performed as previously described. The parameters of the tail-flick instrument (7360, Ugo Basile Instruments, Varese, Italy) were set up to keep the baseline at 2.5–4.0 s. Mice were fixed and the part about 1.5–2 cm away from the tail of the mouse was aligned with the infrared emission hole of the instrument. […] Latencies of mice of less than 2 s or more than 5 s were excluded. […] The cut-off time in the tail-flick reflex test was set at 8 s to avoid sensitization and damage to the skin and to achieve the maximum possible effect (MPE%) = (measured value − basic value) × 100/(cut-off − basic value). C57BL/6J male mice obtained from The Jackson Laboratory (Bar Harbor, ME, USA) weighing 28 g were used for the tail-flick test. Animal procedures were conducted following the rules and regulations of the Institutional Animal Care and Use Committee of the National Institute on Alcohol Abuse and Alcoholism (NIAAA) under the protocols of LPS-GK1.

[2] = Plasma protein binding (equilibrium dialysis), human; assay type: in vitro ADME; details: for fraction unbound at 5 h, 1 μM: plasma (non-diluted), pH 7.4, read-out: Plasma Protein Binding Human % of Bound Comp
Procedure: The assay was performed in a multiple-use 96-well dialysis unit (HTD96b dialyzer). Each individual well unit consisted of 2 chambers separated by a vertically aligned dialysis membrane of predetermined pore size (MWCO 12–14 kDa). An amount of 120 μL of non-diluted plasma spiked with the compound (1 μM, final DMSO concentration 1%) was added to one chamber, and the same volume of PBS buffer with pH 7.4 was added to the other chamber. The HTD96b dialyzer was covered with adhesive sealing film and incubated at 37 °C and shaken at 100 rpm for 5 h. For sample preparation, an aliquot of the content of each chamber was mixed with the same volume of the blank opposite matrix. To define the non-specific loss of the compound during this assay, a standard solution was created by mixing an aliquot of spiked plasma with a blank buffer without dialysis. Two aliquots of the standard solution were incubated at 37 °C and shaken at 100 rpm for 5 h (recovery samples). The other two aliquots were immediately diluted with acetonitrile and stored at 4 °C until LC–MS/MS analysis (stability samples). All samples were diluted 5-fold with 100% methanol with subsequent plasma protein sedimentation by centrifuging at 6000 rpm for 5 min. Supernatants were analyzed using the HPLC system coupled with a tandem mass spectrometer.

C57BL/6J male mice [3] = experiment: Hot plate model; assay type: in vivo; details: 10 mg/kg i.p.
Procedure: Thermal nociception in the hot plate test was assessed with a commercially available apparatus (Hotplate Analgesia Meter, Columbus Instruments) consisting of a metal plate to a constant temperature of 55.0 ± 0.1 °C. Mice were put into the hot plate testing instrument to adapt for at least 15 min. The device was connected to a manually operated timer that recorded the amount of time the mouse spent on the heated surface before showing signs of nociception (e.g., licked its paws or jumped), the cut-off time was 60 s. The baseline (basic pain threshold, the response was more than 25 s, and the jumping mice were excluded.) was calculated as the mean of three readings recorded before testing at intervals of 15 min. The time course of latency was then determined at 15, 30, 45, 60, 90, and 120 min after compound treatment. Data were analyzed as time-course curves of the percentage of maximum effect MPE% = (post drug latency − baseline latency) × 100/(cut-off time − baseline latency). C57BL/6J male mice obtained from The Jackson Laboratory (Bar Harbor, ME, USA) weighing 28 g were used for the hot plate test. Animal procedures were conducted following the rules and regulations of the Institutional Animal Care and Use Committee of the National Institute on Alcohol Abuse and Alcoholism (NIAAA) under the protocols of LPS-GK1.

Compound	Pgp substrate status from Caco-2 efflux ratio (Caco-2 cells)	brain penetrability judged from Caco-2 permeability (Caco-2 cells)	analgesic activity in tail-flick model (C57BL/6J male mice [1])	compound stability in plasma during dialysis [2] [%]	fraction unbound at 5 h, 1 μM [2]	analgesic effect in hot plate assay (C57BL/6J male mice [3])
O=C(NC12CC3CC(CC(C3)C1)C2)NS(=O)(=O)c1ccc(OC(F)(F)F)cc1 [Compound 4f]	not Pgp substrates	brain penetrable	significant efficacy	99	< 0.001	none of the sEH inhibitors, including AUDA, showed any analgesic effect
O=C(NC12CC3CC(CC(C3)C1)C2)NS(=O)(=O)c1ccc2ccccc2c1 [Compound 4l]		brain penetrable		99	< 0.001	none of the sEH inhibitors, including AUDA, showed any analgesic effect
